Reference: ChEMBL document CHEMBL5584248, “Synthesis and biological characterization of an orally bioavailable lactate dehydrogenase-A inhibitor against pancreatic cancer” (Eur J Med Chem, 2024)

Legend:
[1] = biological target: L-lactate dehydrogenase A chain (Homo sapiens, UniProt P00338); test: Inhibition of human LDH-A incubated for 10 mins in presence of […] by fluorescence based reader assay
[2] = biological target: L-lactate dehydrogenase B chain (Homo sapiens, UniProt P07195); test: Inhibition of human LDH-B incubated for 10 mins in presence of […] by fluorescence based reader assay
L-lactate dehydrogenase B chain, sequence (P07195 whole entry): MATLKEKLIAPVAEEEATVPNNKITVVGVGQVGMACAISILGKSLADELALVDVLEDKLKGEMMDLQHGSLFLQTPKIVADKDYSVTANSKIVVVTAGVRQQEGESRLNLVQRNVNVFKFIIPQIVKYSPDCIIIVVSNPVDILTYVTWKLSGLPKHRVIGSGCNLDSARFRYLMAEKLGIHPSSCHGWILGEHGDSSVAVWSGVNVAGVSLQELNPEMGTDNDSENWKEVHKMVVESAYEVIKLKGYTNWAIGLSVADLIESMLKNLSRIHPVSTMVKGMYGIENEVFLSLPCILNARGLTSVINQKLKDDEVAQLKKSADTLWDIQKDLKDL

| SMILES | IC50 [1] | IC50 [2] |
| --- | --- | --- |
| O=C(CC(C(=O)O)c1ccc(C(F)(F)F)cc1)Nc1ccc(-c2cccs2)cc1 (configuration not stated) | > 100 µM | > 100 µM |
| COC(=O)C(CC(=O)Nc1ccc(N2CCOCC2)c(F)c1)c1ccc(C(F)(F)F)cc1 (configuration not stated) | 71.5 µM |  |
| O=C(CC(C(=O)O)c1ccc(C(F)(F)F)cc1)Nc1ccc(N2CCOCC2)c(Cl)c1 (configuration not stated) | > 100 µM | > 100 µM |
| COC(=O)C(CC(=O)Nc1ccc(C(=O)c2nccn2C)cc1)c1ccc(F)cc1 (configuration not stated) | 37.8 µM |  |
| COC(=O)C(CC(=O)Nc1ccc(Cl)nn1)c1ccc(C(F)(F)F)cc1 (configuration not stated) | > 100 µM | > 100 µM |
| COC(=O)C(CC(=O)Nc1ccc(C(=O)c2nccn2C)cc1)c1ccccc1 (configuration not stated) | 2.49 µM |  |
| COC(=O)C(CC(=O)Nc1ccc(C(=O)c2nccn2C)cc1)c1ccc(OC)cc1 (configuration not stated) | 50 µM |  |
| O=C(CC(C(=O)O)c1ccc(C(F)(F)F)cc1)Nc1ccc(C(=O)c2ccccc2)cc1 (configuration not stated) | 79.3 µM |  |
| COC(=O)C(CC(=O)Nc1ccc(C(=O)c2ccccc2)cc1)c1ccc(C(F)(F)F)cc1 (configuration not stated) | 15.7 µM |  |
